# In patent publication US9624213B2 (Plexxikon Inc., priority 2011, dated 2017):
# Target: B-Raf V600E (Homo sapiens (Human), UniProt P15056, V600E)
# Experiment: B-Raf V600E kinase biochemical activity (AlphaScreen, biotin-MEK1 substrate)
# Conditions: 100 μM ATP
# Experimental: Assays for biochemical and cell based activity are known in the art, for example, as described in PCT publication WO 2007/002433, the disclosure of which is hereby incorporated by reference as it relates to such assays. For example, the biochemical activity IC50 values are determined with respect to inhibition of B-Raf V600E kinase activity or p-Erk kinase activity, where inhibition of phosphorylation of a peptide substrate is measured as a function of compound concentration. Compounds to be tested are diluted in dimethyl sulfoxide to a concentration of 0.1 mM. These are serially diluted 15 μL into 30 μL of dimethyl sulfoxide seven times in 96 well plates for a total of 8 dilution points, and for each dilution point 1 μL is added to a well of an assay plate. Plates are prepared such that each well in a 384 well plate contains 1 μL of compound in 10 μL volume with 0.1 ng Raf enzyme (i.e. any of B-Raf, c-Raf-1 or B-Raf V600E, Upstate Biotechnology or prepared by methods known to one of skill in the art), 50 mM HEPES, pH 7.0, 50 mM NaCl, 2 mM MgCl2, 1 mM MnCl2, 0.01% Tween-20, 1 mM DTT, and 100 nM biotin-MEK1 as substrate. The reaction is started with addition of 10 μL of 200 μM ATP (i.e. final 100 μM ATP). After incubation of the kinase reaction for 45 minutes at room temperature, 5 μL/well of Stop Solution is added (25 mM Hepes pH 7.5, 100 mM EDTA, 0.01% BSA with donor beads (Streptavidin coated beads, Perkin Elmer), acceptor beads (Protein A coated, Perkin Elmer), and anti phosphor MEK1/2 antibody (CellSignal), each at final concentration 10 μg/mL). The plates are incubated for 3 hours at room temperature and read on Envision reader (Perkin Elmer). Phosphorylation of Mek1 results in binding of the anti-phosphor-MEK1/2antibody and association of the donor and acceptor beads such that signal correlates with kinase activity. The signal vs. compound concentration is used to determine the IC50.
# Chain of B-Raf V600E (P15056 whole entry V600E): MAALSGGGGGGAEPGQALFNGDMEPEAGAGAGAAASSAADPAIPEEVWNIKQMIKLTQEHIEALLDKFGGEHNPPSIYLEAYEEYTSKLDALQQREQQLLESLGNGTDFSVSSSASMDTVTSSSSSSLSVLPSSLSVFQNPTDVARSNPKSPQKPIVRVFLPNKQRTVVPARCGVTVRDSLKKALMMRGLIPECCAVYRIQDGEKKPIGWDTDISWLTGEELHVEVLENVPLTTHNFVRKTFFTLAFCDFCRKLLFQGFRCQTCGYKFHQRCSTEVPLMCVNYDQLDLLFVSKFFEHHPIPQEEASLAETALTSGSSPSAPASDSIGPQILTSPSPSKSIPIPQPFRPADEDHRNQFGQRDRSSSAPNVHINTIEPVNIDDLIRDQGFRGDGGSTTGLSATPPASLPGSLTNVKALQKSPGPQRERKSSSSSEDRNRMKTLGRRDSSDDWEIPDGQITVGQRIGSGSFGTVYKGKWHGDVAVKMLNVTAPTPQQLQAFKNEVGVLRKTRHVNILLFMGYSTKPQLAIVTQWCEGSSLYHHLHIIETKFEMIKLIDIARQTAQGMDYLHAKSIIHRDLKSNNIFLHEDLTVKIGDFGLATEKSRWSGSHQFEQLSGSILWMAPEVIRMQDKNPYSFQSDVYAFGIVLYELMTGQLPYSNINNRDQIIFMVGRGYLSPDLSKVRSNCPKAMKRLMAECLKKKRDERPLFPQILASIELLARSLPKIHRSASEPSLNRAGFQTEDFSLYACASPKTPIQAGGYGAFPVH
row,IC50 [µM],Structure (SMILES)
1,< 0.1,"N#CC1(c2ccc(-c3cnc4[nH]cc(C(=O)c5c(F)ccc(NS(=O)(=O)N6CCCC6)c5F)c4c3)cc2)CC1 [Compound P-0248, N-[3-[5-[4-(1-cyanocyclopropyl)phenyl]-1H-pyrrolo[2,3-b]pyridine-3-carbonyl]-2,4-difluoro-phenyl]pyrrolidine-1-sulfonamide]"
2,< 0.1,"CN(C)S(=O)(=O)Nc1ccc(F)c(C(=O)c2c[nH]c3ncc(-c4ccc(C5(C#N)CC5)cc4)cc23)c1F [Compound P-0237, 5-[4-(1-cyanocyclopropyl)phenyl]-3-[3-(dimethylsulfamoylamino)-2,6-difluoro-benzoyl]-1H-pyrrolo[2,3-b]pyridine]"
3,< 0.1,"CCN(C)S(=O)(=O)Nc1ccc(F)c(C(=O)c2c[nH]c3ncc(-c4ccc(C5(C#N)CC5)cc4)cc23)c1F [Compound P-0239, 5-[4-(1-cyanocyclopropyl)phenyl]-3-[3-[[ethyl(methyl)sulfamoyl]amino]-2,6-difluoro-benzoyl]-1H-pyrrolo[2,3-b]pyridine]"
4,< 0.1,"Cn1cc(-c2cnc3[nH]cc(C(=O)c4cccc(NS(=O)(=O)CC5CC5)c4F)c3c2)cn1 [Compound P-0042, 1-cyclopropyl-N-[2-fluoro-3-[5-(1-methylpyrazol-4-yl)-1H-pyrrolo[2,3-b]pyridine-3-carbonyl]phenyl]methanesulfonamide]"
